Measured values from patent US9181172B2, “Rhein conjugates, preparation method thereof and their uses in producing medicines for treating diabetic nephrosis, intestinal adhesion and osteoarthritis” (priority 2005, dated 2015).
Structures can show the parent of a compound that is named as a salt.

Assays:
Type in all cases: in vivo
mice [1] = test: Acetic acid-induced writhing response in mice; settings: ig 40 mg/kg, 12 days
Method: Fifty Kunming mice, half male and half female, weighing 18-22 g each, were selected and randomly divided into five groups, namely, model control group, aspirin group, rhein sodium group, rhein glucosamine large dose group and small dose group, 10 mice for each group. The mice were administered with medicine by intragastric administration every day, 0.2 ml/10 g body weight, once every day, and administered for 12 days in succession. After the final administration of medicines, 30 minutes later, test was carried on according to the methods in the literature [Xu Shuyun, Methodology in Pharmacological Experiment (the 1st version): 882]. The inhibiting rate for writhing response was calculated.

mice [2] = test: Immune function in mice (clearance index, phagocytic index); settings: ig 40 mg/kg, 3 days
Method: Fifty Kunming mice, half male and half female, weighing 18-22 g each were selected and randomly divided into five groups, namely, model control group, cyclophosphamide group, rhein sodium group, rhein glucosamine large dose group and small dose group, 10 mice for each group. The mice were administered with medicines by intragastric administration, 0.2 ml/10 g body weight, once every day and administered for 3 days in succession. After the mice were administered with medicines, 30 minutes later, test was carried on according to the method in the literature [Xu Shuyun, Methodology in Pharmacological Experiment (the 3rd version): 934]. The […] and corrected phagocytic index α were calculated, and t-test was conducted for statistical analysis.

[3] = tested on: rabbits' ear marginal veins; test: Safety of hydro-acupuncture injection: irritation of rabbits' ear marginal vein; settings: rabbit, in vivo
From the text: In rabbits' ear marginal vein aseptic operation, rhein sodium salt, rhein arginine conjugates and 0.9% sodium chloride injection liquid were slowly filled into the veins respectively every two days for three consecutive times.

diabetic rats = test: Diabetic nephrosis of obese diabetic rats (high-fat high-sugar diet plus STZ); settings: six months, ig 65 mg/kg
Method: Animal model of diabetic rats: after one month of high-fat high-sugar diet, the rats (about 180 g) were injected by sub-pathogenic dose (25 mg/kg) of streptozotocin (STZ) to induce the occurrence of diabetes. The model has the characteristics of moderate hyperglycemia, hyperlipidemia and insulin resistance as well as pathological changes of typical diabetic nephrosis.
• 1. Conventional feedstuff control group: distilled water. • 2. Diabetes model group: distilled water. • 3. Rhein lysine diabetes treatment group: a month after STZ injection, rhein lysine complex [prepared with distilled water, intragastric infusion for rats according to 90 mg/kg (0.209 mmol/kg) dose] was administered referred to treatment group 1. • 4. Rhein sodium diabetes treatment group: a month after STZ injection, rhein sodium [prepared with distilled water, intragastric infusion for rats, according to 65 mg/kg (0.212 mmol/kg) dose] was administered, referred to treatment group 2. • 5. Rhein lysine diabetes prevention group: one week after STZ injection, rhein lysine conjugates were administered [prepared with distilled water and intragastric infusion for rats, according to 90 mg/kg (0.209 mmol/kg) dose], referred to prevention group 1. • 6. Rhein sodium diabetes prevention group: one week after STZ injection, rhein sodium were administered [prepared with distilled water and intragastric infusion for rats, according to 65 mg/kg (0.212 mmol/kg ) dose], referred to prevention group 2.

For `O=C(O)c1cc(O)c2c(c1)C(=O)c1cccc(O)c1C2=O` [Rhein sodium salt, rhein sodium salt], the Inhibiting rate (mice [1]) was 37.7%, the Times of writhing (mice [1]) was 20.1 ± 8.9 per/20 min and the “Clearance index (k)” value (mice [2]) was 0.0272 ± 0.0124. For the same compound, the “Phagocytic index (α)” value (mice [2]) was 4.9134 ± 0.7498, the “biopsy of rabbits' ear marginal vein” value [3] was “slight with partial endothelial cell necrosis and abscission, and inflammatory response of the surrounding tissues” and the “irritation on rabbits' ear marginal veins” value [3] was “has irritation”. The Urine protein (diabetic rats; preventive administration from one week after STZ) was 11.54 ± 2.98 mg/24 h, the “Kidney weight index (double kidney weight/body weight × 10^4)” value (diabetic rats; preventive administration) was 5.21 ± 0.68 and the Serum total cholesterol (diabetic rats; preventive administration) was 2.89 ± 0.31 mM. For the same compound, the Serum triacylglycerol (diabetic rats; preventive administration) was 1.68 ± 0.45, the “Steady blood sugar level” value (diabetic rats; preventive administration) was 6.7 ± 0.8 mmol/L and the Steady insulin level (diabetic rats; preventive administration) was 72.6 ± 3.6 uU/ml. The Weight (diabetic rats; preventive administration) was 243 ± 12 g, the blood sugar (diabetic rats; preventive administration) was 15.08 ± 5.7 mmol/L and the Urine protein (diabetic rats; treatment from a month after STZ) was 16.15 ± 7.71 mg/24 h. The “Kidney weight index (double kidney weight/body weight × 10^4)” value (diabetic rats; treatment) was 6.9 ± 0.83, the Serum total cholesterol (diabetic rats; treatment) was 3.71 ± 0.63 mM and the Serum triacylglycerol (diabetic rats; treatment) was 1.66 ± 0.47. For the same compound, the “Steady blood sugar level” value (diabetic rats; treatment) was 5.9 ± 0.8 mmol/L, the Steady insulin level (diabetic rats; treatment) was 81 ± 4.5 uU/ml and the Weight (diabetic rats; treatment) was 229 ± 16 g. For the same compound, the blood sugar (diabetic rats; treatment) was 17.3 ± 3.3 mmol/L.
